Laboratory results reported in patent US20110123654A1, “SYNERGISTIC ENHANCEMENT OF CELLULAR ERGOGENIC NUTRIENT UPTAKE, LIKE CREATINE OR CARNITINE, WITH TARRAGON” (priority 2008, published 2011).

System: blood glucose levels
Assay: Glucose challenge test in rats
Format: in vivo
Settings: compared to control; p.o. 30 min before i.p. glucose challenge; non-fasted male Wistar rats
Protocol: A common way of testing for an effect of extracts or new chemical entities on blood glucose levels is the glucose challenge test (Verspohl, E. J.: Recommended testing in diabetes research. Planta Med 68 (7): 581-90, 2002) in which rats are given the extract, control, or a known antidiabetic substance with challenge an intraperitoneal (i.p.) dose of glucose. The extracts or extract PLUS creatine are given orally 30 min. before the glucose challenge. Blood samples are taken sublingual at time points 0, 15, 30, 60, and 120 minutes for the glucose challenge. This sampling scheme ensures to monitor both effects of extracts on the blood glucose levels after glucose challenge closely enough.
Male non-fasted Wistar rats weighing 250-300 g were purchased from Harlan (Indianapolis, Ind., U.S.A). […]
Blood was drawn at the appropriate time points from the sublingual vein after a short halothane anesthesia and stored at 4° C. with addition of heparin. […] The supernatant plasma was taken and analyzed using an autoanalyzer (Merck, Darmstadt). […]
Both percent and AUC data were analyzed by one-way ANOVA and Student-Newman-Keuls Multiple Comparison Test using Graphpad 4.0 Software, San Diego, USA. The AUC (area under the curve) was calculated using the trapezoidal rule without extensions beyond the last time point measured.

## CN(CC(=O)O)C(=N)N.O [creatine monohydrate]
  glucose disposal: no effect
